Reference: patent publication US20250367166A1, “NEXT GENERATION DIPROVOCIMS THAT ACTIVATE THE INNATE AND ADAPTIVE IMMUNE RESPONSE” (The Scripps Research Institute, priority 2022, published 2025)

How the values were obtained:
TLR1/TLR2 [1] = molecular target: TLR1/TLR2 (Mus musculus, UniProt Q9EPQ1+Q9QUN7); assay: TNF-α release from thioglycolate-elicited mouse peritoneal macrophages (ELISA); conditions: for Emax: 4 h, read-out: Efficacy (magnitude) of response versus diprovocim-1 (100%), mouse macrophages; for EC50: read-out: EC50 (nM) (mouse): EC50 TNF-α release from mouse macrophages, Table 1
TLR1/TLR2 (Mus musculus, UniProt Q9EPQ1+Q9QUN7), sequence (Q9EPQ1 26-795): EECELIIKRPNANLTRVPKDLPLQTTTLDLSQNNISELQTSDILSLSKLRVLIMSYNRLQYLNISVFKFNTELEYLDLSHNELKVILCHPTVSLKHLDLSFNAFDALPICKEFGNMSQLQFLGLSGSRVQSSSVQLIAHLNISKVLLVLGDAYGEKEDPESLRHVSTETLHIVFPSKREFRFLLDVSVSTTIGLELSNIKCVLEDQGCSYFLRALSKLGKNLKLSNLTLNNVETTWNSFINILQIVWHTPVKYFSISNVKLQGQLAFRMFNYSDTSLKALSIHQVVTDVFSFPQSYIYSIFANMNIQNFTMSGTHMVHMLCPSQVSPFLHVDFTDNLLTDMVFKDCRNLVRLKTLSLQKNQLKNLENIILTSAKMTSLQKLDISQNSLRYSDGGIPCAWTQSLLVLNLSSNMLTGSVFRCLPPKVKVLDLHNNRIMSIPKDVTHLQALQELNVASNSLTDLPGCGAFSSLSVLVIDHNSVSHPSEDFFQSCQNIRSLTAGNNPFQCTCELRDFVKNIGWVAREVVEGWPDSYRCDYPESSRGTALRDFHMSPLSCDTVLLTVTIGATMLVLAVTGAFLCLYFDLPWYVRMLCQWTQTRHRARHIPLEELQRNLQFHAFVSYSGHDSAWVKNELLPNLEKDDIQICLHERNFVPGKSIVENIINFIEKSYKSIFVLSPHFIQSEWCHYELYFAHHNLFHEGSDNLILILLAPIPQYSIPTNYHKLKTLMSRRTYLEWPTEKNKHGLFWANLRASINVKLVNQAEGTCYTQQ
TLR1/TLR2 (Mus musculus, UniProt Q9EPQ1+Q9QUN7), sequence (Q9QUN7 25-784): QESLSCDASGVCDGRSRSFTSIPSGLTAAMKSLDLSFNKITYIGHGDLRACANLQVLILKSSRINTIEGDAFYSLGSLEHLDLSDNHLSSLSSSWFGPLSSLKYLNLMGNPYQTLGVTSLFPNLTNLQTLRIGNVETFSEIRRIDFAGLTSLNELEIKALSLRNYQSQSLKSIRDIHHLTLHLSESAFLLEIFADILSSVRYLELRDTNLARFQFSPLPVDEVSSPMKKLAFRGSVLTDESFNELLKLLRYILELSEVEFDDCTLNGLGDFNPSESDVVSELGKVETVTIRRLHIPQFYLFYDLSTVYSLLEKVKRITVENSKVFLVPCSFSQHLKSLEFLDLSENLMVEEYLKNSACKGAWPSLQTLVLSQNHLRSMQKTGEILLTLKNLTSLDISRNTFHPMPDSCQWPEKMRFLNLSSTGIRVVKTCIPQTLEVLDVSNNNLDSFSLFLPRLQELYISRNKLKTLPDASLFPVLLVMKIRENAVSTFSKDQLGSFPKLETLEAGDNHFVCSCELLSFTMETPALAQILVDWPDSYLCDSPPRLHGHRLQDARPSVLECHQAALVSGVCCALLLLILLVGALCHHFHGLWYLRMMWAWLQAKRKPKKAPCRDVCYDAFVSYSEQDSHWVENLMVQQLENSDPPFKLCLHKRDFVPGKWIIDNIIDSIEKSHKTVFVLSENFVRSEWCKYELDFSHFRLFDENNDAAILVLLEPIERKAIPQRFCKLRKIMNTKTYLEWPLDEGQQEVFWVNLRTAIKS

TLR1/TLR2 [2] = molecular target: TLR1/TLR2 (Homo sapiens, UniProt O60603+Q15399); assay: TNF-α release from PMA-differentiated human THP-1 cells (ELISA); conditions: for Emax: THP-1, 4 h, read-out: Efficacy (magnitude) of response versus diprovocim-1 (100%), THP-1; for EC50: read-out: EC50 (nM) (THP-1): EC50 TNF-α release from human THP-1 cells, Table 1;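 as to all read-outs here: cells exposed to graded compound concentrations for 4 h, TNF-α quantified in supernatant, LPS as positive and DMSO as negative control, values are duplicate means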
TLR1/TLR2 (Homo sapiens, UniProt O60603+Q15399), sequence (Q15399 25-786): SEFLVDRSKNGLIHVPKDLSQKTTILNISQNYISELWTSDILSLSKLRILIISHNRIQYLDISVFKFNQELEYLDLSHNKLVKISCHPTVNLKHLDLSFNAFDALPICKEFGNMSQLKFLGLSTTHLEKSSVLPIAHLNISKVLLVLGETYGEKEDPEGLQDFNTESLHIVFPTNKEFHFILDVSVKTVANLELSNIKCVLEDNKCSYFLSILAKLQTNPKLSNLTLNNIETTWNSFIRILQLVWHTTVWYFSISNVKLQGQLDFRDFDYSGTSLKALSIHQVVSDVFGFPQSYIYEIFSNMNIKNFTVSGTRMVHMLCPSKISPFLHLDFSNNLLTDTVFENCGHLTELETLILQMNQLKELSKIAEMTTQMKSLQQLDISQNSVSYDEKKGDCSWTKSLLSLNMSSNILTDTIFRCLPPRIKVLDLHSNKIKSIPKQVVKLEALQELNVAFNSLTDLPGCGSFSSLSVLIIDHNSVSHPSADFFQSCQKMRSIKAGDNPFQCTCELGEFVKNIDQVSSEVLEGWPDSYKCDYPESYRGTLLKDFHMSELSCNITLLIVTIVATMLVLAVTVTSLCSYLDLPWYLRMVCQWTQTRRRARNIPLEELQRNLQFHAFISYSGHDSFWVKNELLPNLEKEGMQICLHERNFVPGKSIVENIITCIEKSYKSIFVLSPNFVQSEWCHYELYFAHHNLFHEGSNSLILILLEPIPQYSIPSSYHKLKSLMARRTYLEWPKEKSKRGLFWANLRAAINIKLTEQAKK
TLR1/TLR2 (Homo sapiens, UniProt O60603+Q15399), sequence (O60603 21-784): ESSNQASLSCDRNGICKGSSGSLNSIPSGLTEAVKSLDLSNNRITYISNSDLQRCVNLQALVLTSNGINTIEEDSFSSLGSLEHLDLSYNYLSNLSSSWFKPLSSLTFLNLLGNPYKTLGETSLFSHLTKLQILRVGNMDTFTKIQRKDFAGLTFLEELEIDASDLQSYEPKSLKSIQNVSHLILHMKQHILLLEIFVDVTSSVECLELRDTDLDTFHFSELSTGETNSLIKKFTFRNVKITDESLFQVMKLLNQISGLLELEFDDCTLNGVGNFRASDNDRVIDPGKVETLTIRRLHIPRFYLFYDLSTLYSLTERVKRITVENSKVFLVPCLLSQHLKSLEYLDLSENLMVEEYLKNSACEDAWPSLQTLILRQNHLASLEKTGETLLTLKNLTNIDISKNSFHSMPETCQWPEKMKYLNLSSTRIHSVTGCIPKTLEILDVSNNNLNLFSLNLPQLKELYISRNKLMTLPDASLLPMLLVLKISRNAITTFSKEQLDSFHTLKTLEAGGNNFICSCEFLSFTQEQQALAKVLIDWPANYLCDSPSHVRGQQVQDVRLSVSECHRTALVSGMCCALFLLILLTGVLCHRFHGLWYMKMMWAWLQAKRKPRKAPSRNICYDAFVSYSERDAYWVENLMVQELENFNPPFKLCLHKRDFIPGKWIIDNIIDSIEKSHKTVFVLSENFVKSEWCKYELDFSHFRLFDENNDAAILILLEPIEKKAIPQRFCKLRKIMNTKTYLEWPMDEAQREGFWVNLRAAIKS
Procedure: THP-1 (American Type Culture Collection) cells, a human monocytic leukemia cell line, were differentiated by treatment with 100 nM PMA (Sigma) in Roswell Park Memorial Institute (RPMI) cell culture medium [RPMI containing 10% vol/vol FBS (Gemini Bio Products), 1% penicillin and streptomycin (Life Technologies)] for 24 h. After that, the cells were washed with PBS and cultured in fresh RPMI cell culture medium for 24 h before use in studies. PMA-differentiated THP-1 cells were seeded onto 96-well plates at 0.5×10^5 cells per well and treated with systematically varied concentrations of the candidate compounds (dissolved in DMSO, and the final assay DMSO concentration (0.1%) was kept constant in all experiments) for 4 h. Ultra-pure LPS (dissolved in H2O, Enzo Life Sciences) was assessed alongside the compounds as a positive control and DMSO treated control was used as a negative control. Human TNF-α in the supernatants was measured by ELISA (eBioscience). This assay was used for establishing dose-response curves and measured EC50's. EC50's were calculated by Graphpad Prism. All data is the mean of duplicates and SD is within +10% of mean.

Compound | Emax (TLR1/TLR2 [1]) [%] | EC50 (TLR1/TLR2 [1]) [nM] | Emax (TLR1/TLR2 [2]) [%] | EC50 (TLR1/TLR2 [2]) [nM]
CC(C)(C)OC(=O)NCCCCCCCCCCCCNC(=O)[C@@H]1CN(C(=O)c2ccc(C(=O)N3C[C@@H](C(=O)N[C@H]4C[C@@H]4c4ccccc4)[C@H](C(=O)N[C@H]4C[C@@H]4c4ccccc4)C3)cc2)C[C@H]1C(=O)N[C@H]1C[C@@H]1c1ccccc1 [Compound 17, tert-Butyl (12-((3S,4S)-1-(4-((3S,4S)-3,4-bis(((1S,2R)-2-phenylcyclopropyl)carbamoyl)-pyrrolidine-1-carbonyl)benzoyl)-4-(((1S,2R)-2-phenylcyclopropyl)carbamoyl)pyrrolidine-3-carboxamido)dodecyl)carbamate] | 120 | 2.8 | 70 | 0.18
CC(C)(C)OC(=O)NCC(=O)NCCCCCCCCCCCCNC(=O)[C@@H]1CN(C(=O)c2ccc(C(=O)N3C[C@@H](C(=O)N[C@H]4C[C@@H]4c4ccccc4)[C@H](C(=O)N[C@H]4C[C@@H]4c4ccccc4)C3)cc2)C[C@H]1C(=O)N[C@H]1C[C@@H]1c1ccccc1 [Compound 18, tert-Butyl (2-((12-((3S,4S)-1-(4-((3S,4S)-3,4-bis-(((1S,2R)-2-phenylcyclopropyl)carbamoyl)pyrrolidine-1-carbonyl)-benzoyl)-4-(((1S,2R)-2-phenyl-cyclopropyl)-carbamoyl)pyrrolidine-3-carboxamido)-dodecyl)amino)-2-oxoethyl)carbamate] | 90 | 170 | 90 | 0.33
C#CCCCCCCCCCCCCNC(=O)[C@@H]1CN(C(=O)c2ccc(C(=O)N3C[C@@H](C(=O)N[C@H]4C[C@@H]4c4ccccc4)[C@H](C(=O)N[C@H]4C[C@@H]4c4ccccc4)C3)cc2)C[C@H]1C(=O)N[C@H]1C[C@@H]1c1ccccc1 [Compound 19, (3S,4S)-1-(4-((3S,4S)-3,4-Bis(((1S,2R)-2-phenylcyclo-propyl)carbamoyl)pyrrolidine-1-carbonyl)-benzoyl)-N^3-((1S,2R)-2-phenylcyclopropyl)-N^4-(tetradec-13-yn-1-yl)pyrrolidine-3,4-dicarboxamide] | 180 | 1.3 | 120 | 0.04
[N-]=[N+]=NCCCCCCCCCCCCNC(=O)[C@@H]1CN(C(=O)c2ccc(C(=O)N3C[C@@H](C(=O)N[C@H]4C[C@@H]4c4ccccc4)[C@H](C(=O)N[C@H]4C[C@@H]4c4ccccc4)C3)cc2)C[C@H]1C(=O)N[C@H]1C[C@@H]1c1ccccc1 [Compound 20, (3S,4S)—N^3-(12-Azidododecyl)-1-(4-((3S,4S)-3,4-bis-(((1S,2R)-2-phenylcyclopropyl)carbamoyl)-pyrrolidine-1-carbonyl)benzoyl)-N^4-((1S,2R)-2-phenylcyclopropyl)-pyrrolidine-3,4-dicarboxamide] | 50 | 0.6 | 30 | 0.07
O=C(NCCCCCCCCCCCCS)[C@@H]1CN(C(=O)c2ccc(C(=O)N3C[C@@H](C(=O)N[C@H]4C[C@@H]4c4ccccc4)[C@H](C(=O)N[C@H]4C[C@@H]4c4ccccc4)C3)cc2)C[C@H]1C(=O)N[C@H]1C[C@@H]1c1ccccc1 [Compound 21, (3S,4S)-1-(4-((3S,4S)-3,4-Bis(((1S,2R)-2-phenyl-cyclopropyl)carbamoyl)pyrrolidine-1-carbonyl)-benzoyl)-N^3-(12-mercaptododecyl)-N^4-((1S,2R)-2-phenyl-cyclo-propyl)pyrrolidine-3,4-dicarboxamide] |  | 5 |  | 0.5
O=C(NCc1ccccc1)[C@@H]1CN(C(=O)c2ccc(C(=O)N3C[C@@H](C(=O)N[C@H]4C[C@@H]4c4ccccc4)[C@H](C(=O)N[C@H]4C[C@@H]4c4ccccc4)C3)cc2)C[C@H]1C(=O)N[C@H]1C[C@@H]1c1ccccc1 [Compound 22, (3S,4S)—N^3-Benzyl-1-(4-((3S,4S)-3,4-bis(((1S,2R)-2-phenylcyclopropyl)carbamoyl)pyrrolidine-1-carbonyl)-benzoyl)-N^4-((1S,2R)-2-phenylcyclopropyl)pyrrolidine-3,4-dicarboxamide] |  | 50 |  | 7
